Data published in patent US11427548B2 (Arvinas Operations, Inc., priority 2015, dated 2022).
Read-outs that look alike come from different tables or passages of the source.

Target: T1, Androgen Receptor (Homo sapiens, UniProt P10275)
T1 construct: endogenous in cells; host or cells: VCaP cells
T1 sequence (P10275 1-920): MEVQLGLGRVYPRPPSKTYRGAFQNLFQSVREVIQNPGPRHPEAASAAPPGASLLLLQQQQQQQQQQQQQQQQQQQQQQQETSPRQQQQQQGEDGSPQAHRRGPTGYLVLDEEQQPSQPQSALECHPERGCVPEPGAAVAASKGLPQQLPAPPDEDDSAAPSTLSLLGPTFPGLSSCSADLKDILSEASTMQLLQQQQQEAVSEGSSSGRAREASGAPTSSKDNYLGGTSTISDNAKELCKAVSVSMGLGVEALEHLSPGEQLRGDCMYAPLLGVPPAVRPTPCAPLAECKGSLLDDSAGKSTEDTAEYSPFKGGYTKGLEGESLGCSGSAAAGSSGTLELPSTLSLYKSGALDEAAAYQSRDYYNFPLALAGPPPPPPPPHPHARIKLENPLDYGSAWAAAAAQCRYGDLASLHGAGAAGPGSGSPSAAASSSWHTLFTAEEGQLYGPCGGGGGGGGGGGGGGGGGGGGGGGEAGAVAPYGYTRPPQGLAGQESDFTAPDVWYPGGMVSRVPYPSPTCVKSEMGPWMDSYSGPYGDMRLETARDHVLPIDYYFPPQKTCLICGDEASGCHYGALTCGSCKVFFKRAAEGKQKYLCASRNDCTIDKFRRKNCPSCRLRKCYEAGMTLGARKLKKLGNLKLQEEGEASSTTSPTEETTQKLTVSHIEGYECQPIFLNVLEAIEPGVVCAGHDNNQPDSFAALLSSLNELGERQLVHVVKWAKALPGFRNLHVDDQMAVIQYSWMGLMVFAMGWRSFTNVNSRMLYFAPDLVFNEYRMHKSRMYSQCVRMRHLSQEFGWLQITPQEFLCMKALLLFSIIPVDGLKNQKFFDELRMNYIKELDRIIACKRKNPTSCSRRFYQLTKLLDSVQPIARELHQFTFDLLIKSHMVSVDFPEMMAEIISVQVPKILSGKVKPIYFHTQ
Assay: Androgen Receptor ELISA assay (PathScan AR ELISA) in VCaP cells: AR degradation, Dmax and DC50
Format: cell-based
Method in brief: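 VCaP cells, 30,000/well, grown ≥3 days in phenol red-free RPMI with 5% charcoal-stripped FBS; compound added in 0.1% DMSO with 0.1 nM R1881, 7 half-log doses, 24 h. Lysate AR quantified by PathScan sandwich ELISA, HRP/TMB read at 450 nm, giving DC50 and Dmax.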

[1] = VCaP cells; Table 36; read-out: VCaP DC50
[2] = VCaP cells; Table 35; read-out: VCaP DC50
[3] = VCaP, VCaP cells; Table 35; read-out: VCaP Dmax (%)
[4] = VCaP, highest percentage of Androgen Receptor degradation observed, VCaP cells (Table 32); read-out: VCaP Dmax (%)
[5] = concentration that caused 50% Androgen Receptor degradation, VCaP cells (Table 32); read-out: VCaP DC50
[6] = VCaP, VCaP cells; Table 36; read-out: VCaP Dmax (%)
[7] = read-out: VCaP DC50; VCaP cells; Table 36

## Cc1ncsc1-c1ccc([C@H](C)NC(=O)[C@@H]2C[C@@H](O)CN2C(=O)[C@H](NC(=O)CN2CCN(CCCc3ccc(C(=O)N[C@H]4C(C)(C)[C@H](Oc5ccc(C#N)c(C#N)c5)C4(C)C)cc3)CC2)C2COC2)cc1 [Example 745, (2S,4R)-1-((R)-2-(2-(4-(3-(4-(((1r,3r)-3-(3,4-dicyanophenoxy)-2,2,4,4-tetramethylcyclobutyl)carbamoyl)phenyl)propyl)piperazin-1-yl)acetamido)-2-(oxetan-3-yl)acetyl)-4-hydroxy-N-((S)-1-(4-(4-methylthiazol-5-yl)phenyl)ethyl)pyrrolidine-2-carboxamide]
[1]
  DC50: > 501 nM
VCaP, read-out: VCaP Dmax (%), VCaP cells; Table 36
  Dmax: < 25%

## CC(C)(C)[C@H](NC(=O)COCCCCCNc1ccc(C(=O)N[C@H]2C(C)(C)[C@H](Oc3ccc(C#N)c(Cl)c3)C2(C)C)cc1)C(=O)N1C[C@H](O)C[C@H]1C(=O)NCc1ccc(-c2scnc2C2CC2)cc1 [Example 555]
[2]
  DC50: < 50 nM
[3]
  Dmax: > 71%

## Cc1ncoc1-c1ccc(CNC(=O)[C@@H]2C[C@@H](O)CN2C(=O)[C@@H](NC(=O)COCCCCOc2ccc(C(=O)N[C@H]3C(C)(C)[C@H](Oc4ccc(C#N)c(Cl)c4)C3(C)C)cc2)C(C)(C)C)cc1 [Example 164, (2S,4R)-1-[(2S)-3,3-dimethyl-2-{2-[4-(4-{[trans-3-(3-chloro-4-cyanophenoxy)-2,2,4,4-tetramethylcyclobutyl]carbamoyl}phenoxy)butoxy]acetamido}butanoyl]-4-hydroxy-N-{[4-(4-methyl-1,3-oxazol-5-yl)phenyl]methyl}pyrrolidine-2-carboxamide]
[4]
  Dmax: > 71%
[5]
  DC50: < 50 nM

## Cc1ncsc1-c1ccc([C@H](C)NC(=O)[C@@H]2C[C@@H](O)CN2C(=O)[C@@H](NC(=O)COCCCCOc2ccc(-c3ccc(N4C(=S)N(c5ccc(C#N)c(C(F)(F)F)c5)C(=O)C4(C)C)cc3)cc2)C(C)(C)C)cc1 [Example 95, (2S,4R)-1-[(2S)-2-(2-{4-[4-(4-{3-[4-cyano-3-(trifluoromethyl)phenyl]-5,5-dimethyl-4-oxo-2-sulfanylideneimidazolidin-1-yl}phenyl)phenoxy]butoxy}acetamido)-3,3-dimethylbutanoyl]-4-hydroxy-N-[(1S)-1-[4-(4-methyl-1,3-thiazol-5-yl)phenyl]ethyl]pyrrolidine-2-carboxamide]
VCaP, read-out: VCaP Dmax (%)
  Dmax: > 71%
read-out: VCaP DC50; concentration that caused 50% Androgen Receptor degradation, VCaP cells (Table 32)
  DC50: < 50 nM

## CC(C)(C)[C@H](NC(=O)COCCN1CCN(c2ccc(C(=O)N[C@H]3C(C)(C)[C@H](Oc4ccc(C#N)c(Cl)c4)C3(C)C)cn2)CC1)C(=O)N1C[C@H](O)C[C@H]1C(=O)NCc1ccc(C2CCC2)cc1 [Example 758, N-((1r,3r)-3-(3-chloro-4-cyanophenoxy)-2,2,4,4-tetramethylcyclobutyl)-6-(4-(2-(2-(((S)-1-((2S,4R)-2-((4-cyclobutylbenzyl)carbam-oyl)-4-hydroxypyrrolidin-1-yl)-3,3-dimethyl-1-oxobutan-2-yl)amino)-2-oxoethoxy)ethyl)pipera-zin-1-yl)nicotinamide]
[1]
  DC50: > 501 nM
[6]
  Dmax: < 25%

## Cc1ncsc1-c1ccc([C@H](C)NC(=O)[C@@H]2C[C@@H](O)CN2C(=O)[C@@H](NC(=O)COCCN2CCN(c3ccc(C(=O)N[C@H]4C(C)(C)[C@H](Oc5ccc(C#N)c(Cl)c5)C4(C)C)nc3)CC2)C(C)(C)C)cc1 [Example 654, N-((1r,3r)-3-(3-chloro-4-cyanophenoxy)-2,2,4,4-tetramethylcyclobutyl)-5-(4-(2-(2-(((S)-1-((2S,4R)-4-hydroxy-2-(((S)-1-(4-(4-methylthiazol-5-yl)phenyl)ethyl)carbam-oyl)pyrrolidin-1-yl)-3,3-dimethyl-1-oxobutan-2-yl)amino)-2-oxoethoxy)ethyl)pipera-zin-1-yl)picolinamide]
[1]
  DC50: < 50 nM
[6]
  Dmax: > 71%

## Cc1ncsc1-c1ccc(CNC(=O)[C@@H]2C[C@@H](O)CN2C(=O)[C@@H](NC(=O)COCCCCNc2ccc(C(=O)N[C@H]3C(C)(C)[C@H](Oc4ccc(C#N)c(Cl)c4)C3(C)C)cn2)C(C)(C)C)cc1 [Example 416]
VCaP cells; Table 34; read-out: VCaP DC50
  DC50: 51 to 500 nM
VCaP, VCaP cells; Table 34; read-out: VCaP Dmax (%)
  Dmax: 26 to 50%

## Cc1ncsc1-c1ccc([C@H](C)NC(=O)[C@@H]2C[C@@H](O)CN2C(=O)[C@H](C(C)C)n2cc(-c3ccnc(N4CC[C@@H](Nc5ccc(C(=O)N[C@H]6C(C)(C)[C@H](Oc7ccc(C#N)c(Cl)c7)C6(C)C)cc5)C4)c3)cn2)cc1 [Example 596, (2S,4R)-1-((S)-2-(4-(2-((R)-3-((4-(((1r,3R)-3-(3-chloro-4-cyanophenoxy)-2,2,4,4-tetramethylcyclobutyl)carbamoyl)phenyl)amino)pyrrolidin-1-yl)pyridin-4-yl)-1H-pyrazol-1-yl)-3-methylbutanoyl)-4-hydroxy-N-((S)-1-(4-(4-methylthiazol-5-yl)phenyl)ethyl)pyrroli-dine-2-carboxamide]
[1]
  DC50: > 501 nM
[6]
  Dmax: 26 to 50%

## Cc1ncsc1-c1ccc([C@H](C)NC(=O)[C@@H]2C[C@@H](O)CN2C(=O)[C@H](C(C)C)n2cc(Oc3cccc(OCCCCCOc4ccc(N5C(=S)N(c6ccc(C#N)c(C(F)(F)F)c6)C(=O)C5(C)C)cc4)c3)cn2)cc1 [Example 600, (2S,4R)-1-((S)-2-(4-(3-((5-(4-(3-(4-cyano-3-(trifluoromethyl)phenyl)-5,5-dimethyl-4-oxo-2-thioxoimidazolidin-1-yl)phenoxy)pentyl)oxy)phenoxy)-1H-pyrazol-1-yl)-3-methylbutanoyl)-4-hydroxy-N-((S)-1-(4-(4-methylthiazol-5-yl)phenyl)ethyl)pyrroli-dine-2-carboxamide]
VCaP, read-out: VCaP Dmax (%)
  Dmax: 26 to 50%
[7]
  DC50: > 501 nM

## Cc1ncsc1-c1ccc([C@H](C)NC(=O)C2C[C@@H](O)CN2C(=O)[C@@H](NC(=O)COCCN2[C@H](C)CN(c3ccc(C(=O)N[C@H]4C(C)(C)[C@H](Oc5ccc(C#N)c(Cl)c5)C4(C)C)cn3)C[C@@H]2C)C(C)(C)C)cc1 (stereo partly drawn) [Example 786, N-((1r,3R)-3-(3-chloro-4-cyanophenoxy)-2,2,4,4-tetramethylcyclobutyl)-6-((3S,5R)-4-(2-(2-(((2S)-1-((4R)-4-hydroxy-2-(((S)-1-(4-(4-methylthiazol-5-yl)phenyl)ethyl)carbamoyl)pyrrolidin-1-yl)-3,3-dimethyl-1-oxobutan-2-yl)amino)-2-oxoethoxy)ethyl)-3,5-dimethylpiperazin-1-yl)nicotinamide]
[1]
  DC50: < 50 nM
[6]
  Dmax: > 71%

## Cc1ncsc1-c1ccc([C@H](C)NC(=O)[C@@H]2C[C@@H](O)CN2C(=O)[C@@H](NC(=O)CN2CCOCCN(CCOc3ccc(N4C(=S)N(c5ccc(C#N)c(C(F)(F)F)c5)C(=O)C4(C)C)cc3)CCOCC2)C(C)(C)C)cc1 [Example 643, (2S,4R)-1-((S)-2-(2-(10-(2-(4-(3-(4-cyano-3-(trifluoromethyl)phenyl)-5,5-dimethyl-4-oxo-2-thioxoimidazolidin-1-yl)phenoxy)ethyl)-1,7-dioxa-4,10-diazacyclododecan-4-yl)acetamido)-3,3-dimethylbutanoyl)-4-hydroxy-N-((S)-1-(4-(4-methylthiazol-5-yl)phenyl)ethyl)pyrrolidine-2-carboxamide]
VCaP, read-out: VCaP Dmax (%)
  Dmax: < 25%
[7]
  DC50: > 501 nM

## CC(C)(C)[C@H](NC(=O)CNCCNc1ccc(-c2ccc(C(=O)N[C@H]3C(C)(C)[C@H](Oc4ccc(C#N)c(Cl)c4)C3(C)C)cc2)cn1)C(=O)N1C[C@H](O)C[C@H]1C(=O)NCc1ccc(C#N)cc1 [Example 500]
[2]
  DC50: < 50 nM
[3]
  Dmax: 26 to 50%

## Cc1ncsc1-c1ccc(CNC(=O)[C@@H]2C[C@@H](O)CN2C(=O)[C@@H](NC(=O)COCCCCOc2ccc(C(=O)N[C@H]3C(C)(C)[C@H](Oc4ccc(C#N)c(C(F)(F)F)c4)C3(C)C)cc2)C(C)(C)C)cc1 [Example 165, (2S,4R)-1-[(2S)-3,3-dimethyl-2-{2-[4-(4-{[trans-3-[4-cyano-3-(trifluoromethyl)phenoxy]-2,2,4,4-tetramethylcyclobutyl]carbamoyl}phenoxy)butoxy]acetamido}butanoyl]-4-hydroxy-N-{[4-(4-methyl-1,3-thiazol-5-yl)phenyl]methyl}pyrrolidine-2-carboxamide]
[4]
  Dmax: > 71%
[5]
  DC50: < 50 nM
